# In PubChem BioAssay (NCI):
#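 48-hour exposure; five concentrations; linearly interpolated endpoints. TGI: total growth inhibition.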
# Experiments:
# Experiment in all cases: NCI-60 cell line screen, 48 h
# [1] = system: 786-0 renal
# [2] = system: A498 renal
# [3] = system: A549 NSCLC
# [4] = system: ACHN renal
# [5] = system: CAKI-1 renal
# [6] = system: CCRF-CEM leukemia
# [7] = system: COLO 205 colon
# [8] = system: DLD-1 colon
# [9] = system: DMS 114 small cell lung
# [10] = system: DMS 273 small cell lung
# [11] = system: EKVX NSCLC
# [12] = system: HCC-2998 colon
# [13] = system: HCT-116 colon
# [14] = system: HCT-15 colon
# [15] = system: HL-60(TB) leukemia
# [16] = system: HOP-18 NSCLC
# [17] = system: HOP-62 NSCLC
# [18] = system: HOP-92 NSCLC
# [19] = system: HT29 colon
# [20] = system: IGROV1 ovarian
# [21] = system: K-562 leukemia
# [22] = system: KM12 colon
# [23] = system: KM20L2 colon
# [24] = system: LOX IMVI melanoma
# [25] = system: LXFL 529 NSCLC
# [26] = system: M14 melanoma
# [27] = system: M19-MEL melanoma
# [28] = system: MALME-3M melanoma
# [29] = system: MOLT-4 leukemia
# [30] = system: NCI-H226 lung
# [31] = system: NCI-H23 lung
# [32] = system: NCI-H460 lung
# [33] = system: NCI-H522 lung
# [34] = system: OVCAR-3 ovarian
# [35] = system: OVCAR-4 ovarian
# [36] = system: OVCAR-5 ovarian
# [37] = system: OVCAR-8 ovarian
# [38] = system: RPMI-8226 leukemia
# [39] = system: RXF 393 renal
# [40] = system: SF-268 CNS
# [41] = system: SF-295 CNS
# [42] = system: SF-539 CNS
# [43] = system: SK-MEL-2 melanoma
# [44] = system: SK-MEL-28 melanoma
# [45] = system: SK-MEL-5 melanoma
# [46] = system: SK-OV-3 ovarian
# [47] = system: SN12C renal
# [48] = system: SNB-19 CNS
# [49] = system: SNB-75 CNS
# [50] = system: SNB-78 CNS
# [51] = system: SR leukemia
# [52] = system: SW-620 colon
# [53] = system: TK-10 renal
# [54] = system: U251 CNS
# [55] = system: UACC-257 melanoma
# [56] = system: UACC-62 melanoma
# [57] = system: UO-31 renal
# [58] = system: XF 498 CNS
# [59] = system: RXF-631 renal
compound,measurement,setting,value
O=C(Nc1ccc(Cl)cc1)c1cccc([N+](=O)[O-])c1O,TGI,[1],> 56.7 µM
same,TGI,[2],7.32 µM
same,TGI,[3],> 100 µM
same,TGI,[4],> 100 µM
same,TGI,[5],17.1 µM
same,TGI,[6],11.7 µM
same,TGI,[7],10.5 µM
same,TGI,[8],> 100 µM
same,TGI,[9],14.8 µM
same,TGI,[10],23.3 µM
same,TGI,[11],14.8 µM
same,TGI,[12],14.4 µM
same,TGI,[13],20 µM
same,TGI,[14],> 88.3 µM
same,TGI,[15],7.18 µM
same,TGI,[16],> 100 µM
same,TGI,[17],9.13 µM
same,TGI,[18],4.72 µM
same,TGI,[19],> 73.1 µM
same,TGI,[20],> 80.3 µM
same,TGI,[21],24.2 µM
same,TGI,[22],> 62.4 µM
same,TGI,[23],98.5 µM
same,TGI,[24],> 100 µM
same,TGI,[25],39.8 µM
same,TGI,[26],32.9 µM
same,TGI,[27],9.07 µM
same,TGI,[28],9.97 µM
same,TGI,[29],10.1 µM
same,TGI,[30],7.95 µM
same,TGI,[31],6.55 µM
same,TGI,[32],> 53.5 µM
same,TGI,[33],6.36 µM
same,TGI,[34],9.09 µM
same,TGI,[35],> 100 µM
same,TGI,[36],> 100 µM
same,TGI,[37],> 69.8 µM
same,TGI,[38],7.2 µM
same,TGI,[39],6.67 µM
same,TGI,[40],> 85 µM
same,TGI,[41],15.5 µM
same,TGI,[42],> 74.1 µM
same,TGI,[43],12.5 µM
same,TGI,[44],39.6 µM
same,TGI,[45],4.86 µM
same,TGI,[46],13.7 µM
same,TGI,[47],> 74.7 µM
same,TGI,[48],> 50.9 µM
same,TGI,[49],26.1 µM
same,TGI,[50],> 37.5 µM
same,TGI,[51],31.5 µM
same,TGI,[52],> 100 µM
same,TGI,[53],> 44.4 µM
same,TGI,[54],48.5 µM
same,TGI,[55],8.13 µM
same,TGI,[56],17.6 µM
same,TGI,[57],6.56 µM
same,TGI,[58],8.31 µM
COC1/C(=C\C(=O)OC(C)(C)C)c2ccccc2N1C(C)=O (stereo not drawn),TGI,[1],> 100 µM
same,TGI,[2],> 100 µM
same,TGI,[3],> 100 µM
same,TGI,[4],> 100 µM
same,TGI,[5],> 100 µM
same,TGI,[6],> 100 µM
same,TGI,[7],> 100 µM
same,TGI,[8],> 100 µM
same,TGI,[9],> 100 µM
same,TGI,[10],> 100 µM
same,TGI,[11],> 100 µM
same,TGI,[12],> 100 µM
same,TGI,[13],> 100 µM
same,TGI,[14],> 100 µM
same,TGI,[15],> 100 µM
same,TGI,[16],> 100 µM
same,TGI,[17],> 100 µM
same,TGI,[19],> 100 µM
same,TGI,[20],> 100 µM
same,TGI,[21],> 100 µM
same,TGI,[22],> 100 µM
same,TGI,[23],> 100 µM
same,TGI,[25],> 100 µM
same,TGI,[26],> 100 µM
same,TGI,[27],> 100 µM
same,TGI,[29],> 100 µM
same,TGI,[31],> 100 µM
same,TGI,[32],> 100 µM
same,TGI,[34],> 100 µM
same,TGI,[35],> 100 µM
same,TGI,[37],> 100 µM
same,TGI,[38],> 100 µM
same,TGI,[39],> 100 µM
same,TGI,[59],> 100 µM
same,TGI,[41],> 100 µM
same,TGI,[42],> 100 µM
same,TGI,[43],> 100 µM
same,TGI,[44],> 100 µM
same,TGI,[46],> 100 µM
same,TGI,[47],> 100 µM
same,TGI,[48],> 100 µM
same,TGI,[49],> 100 µM
same,TGI,[50],> 100 µM
same,TGI,[51],> 100 µM
same,TGI,[52],> 100 µM
same,TGI,[54],> 100 µM
same,TGI,[55],> 100 µM
same,TGI,[56],> 100 µM
same,TGI,[57],> 100 µM
same,TGI,[58],> 100 µM
